Earlier results on one compound are cited in US20090030057A1, “Pharmaceutical composition of telmisartan” (priority 2005, published 2009).

Like-named read-outs stand apart in the source and are kept apart here.

Consider `CCCc1nc2c(C)cc(-c3nc4ccccc4n3C)cc2n1Cc1ccc(-c2ccccc2C(=O)O)cc1` [Telmisartan, 4′-[2-n-propyl-4-methyl-6-(1-methylbenzimid-azol-2-yl)benzimidazol-1-ylmethyl]biphenyl-2-carboxylic acid], for which the solubility result reads like this: (in a strong acid (with the exception of hydrochloric acid)) “sparingly soluble”; (in a strong base) “soluble”; (in hydrochloric acid) “insoluble”; (in water or an aqueous solution in the pH range of 3 to 9) “practically insoluble”.
